One test has as its system C. striatum NCTC 764. The test can be described thus: MBC assay. Format: cell-based, Corynebacterium striatum. Particulars: triplicate. The source says:
(§1) (a) staphylococci. The Staphylococcus aureus strain used was ATCC 29213. S. aureus and other staphylococci are common causes of a wide range of skin, skin structure and wound infections; S. aureus is also known to exacerbate eczema. The ATCC 29213 strain is known to be susceptible to beta-lactam antibiotics such as methicillin. The Staphylococcus epidermidis strain used was NCTC 11047. Staph. epidermidis forms part of the resident flora of skin and is an opportunistic pathogen which can cause biofilms to grow for instance on plastic surgical implants such as catheters. Unless otherwise stated, the staphylococci were cultured and maintained on Mueller-Hinton Medium (agar and broth) at pH 7.2; cultures were incubated aerobically at 37° C. for 19-20 hours, at pH 7 (±0.2). (b) C. striatum NCTC 764. Corynebacterium striatum is closely related to organisms (aerobic diphtheroids of the genus Corynebacterium) that cause body odour. It was cultured and maintained on Mueller-Hinton medium (agar and broth). All cultures were incubated aerobically at 37° C. for 72 hours, at pH 7 (±0.2). (c) streptococci. The strains tested were S. mutans ATCC 25175 and S. pyogenes ATCC 12344. S. mutans is a Gram-positive, microaerophilic bacterium which plays a significant role in dental caries and in infective endocarditis. Streptococcus pyogenes is associated with skin, soft tissue, burn and wound infections. S. mutans was cultured and maintained on Wilkins-Chalgren Anaerobe medium+1 g/L glucose (agar and broth); it was incubated in air at 37° C. for 48 hours, at pH 7 (±0.2) with 5% carbon dioxide. S. pyogenes was cultured and maintained on Mueller-Hinton medium (broth and agar) and was incubated under the same conditions as S. mutans.
This assay, normally carried out after an MIC assay, determines the minimum concentration of a compound that is lethal to the micro-organism being tested.
These samples were then individually sub-cultured on antibiotic-free agar medium, under the incubation conditions described above. Following incubation they were examined visually for microbial growth. […]

Test [1] relates to S. mutans ATCC 25175. The test can be described thus: MIC assay. It is filed as cell-based, Streptococcus mutans. To be noted: Wilkins-Chalgren broth pH 7 (±0.2). As for the experimental part: This is a standard international method for quantitatively assessing the antimicrobial activity of a compound in a liquid medium. The method used a sterile 96-well microtitre plate, capable of holding about 200 μl of liquid per well. […] The culture medium was as described above.
The wells were inoculated with a liquid suspension of freshly grown micro-organism and incubated under the conditions described above. After incubation, the microtitre plate was examined visually (with the aid of a light box) for cloudiness in each well, which would indicate microbial growth. The MIC value was recorded as the lowest concentration of test compound required to inhibit microbial growth, ie the lowest concentration for which the liquid in the well remained clear.
The assays included both negative (culture medium with no micro-organisms) and positive (culture medium plus diluting solvent plus micro-organism) controls.

The test system of test [2] is S. mutans ATCC 25175. Nature of the test: MBC assay. Format: cell-based, Streptococcus mutans. To be noted: Wilkins-Chalgren broth pH 7 (±0.2).
Source text: as §1, with “S. mutans was cultured and maintained on Wilkins-Chalgren Anaerobe medium+1 g/L glucose (agar and broth); it was incubated in air at 37° C. for 48 hours, at pH 7 (±0.2) with 5% carbon dioxide. S. pyogenes was cultured and maintained on Mueller-Hinton medium (broth and agar) and was incubated under the same conditions as S. mutans.” left out

A further test has as its system P. acnes NCTC 737. The test can be described thus: Supplemented disc diffusion assay (lipid or salt). To be noted: 200 μg compound per disc; for zone of inhibition at 200 µg/disc: Cutibacterium acnes, NCTC737. Format: cell-based, Propionibacterium acnes. As for the experimental part: A sterile paper disc was impregnated with a sample of the test compound in a suitable solvent and 30 minutes allowed for the solvents to evaporate (where possible). The disc was then placed on an agar plate onto which the test micro-organism had been inoculated. The plate was then incubated under the conditions described above, following which it was examined visually for signs of microbial growth. If the test compound had antimicrobial activity, a circular zone of no growth would be obtained around the disc. The diameter of this zone of “inhibition” was measured using a ProtoCOL™ automated zone sizer (Synbiosis, Cambridge, UK). In general, a greater diameter and/or area of the zone of inhibition indicates a greater antimicrobial activity in the relevant test compound, although other factors such as test compound mobility through the agar gel may also influence the result.
The DDA test may be carried out using an agar gel supplemented with lipid and/or salt to simulate some of the major components present in human skin and to assess whether these substances might affect the antimicrobial activity observed for the test compound. Performance under these conditions can provide a more reliable indication of activity on topical application. […]
The compounds copper (II) usnate (Just for Today Ltd), sodium usnate (Yick-Vic Chemicals) and usnic acid (Sigma-Aldrich) were tested against P. acnes NCTC 737, using MIC, MBC and DDA assays as described above. For copper usnate and usnic acid, supplemented DDA assays were also carried out. DMSO was used as the solvent for all three test compounds. For the DDAs, 200 μg of the relevant test compound was loaded onto each disc. The MIC and MBC assays were conducted in triplicate, as were the DDAs for copper usnate.
(Agar diffusion results depend on both activity and mobility in agar.)

This is an account of results in patent publication US20120270935A1, “FORMULATIONS” (priority 2009, published 2012).

The structures appear in SMILES notation. In brackets after ≈: the same amount, converted by molar mass. Like-named read-outs stand apart in the source and are kept apart here.

Broadly, the MBC is the lowest tested concentration that kills the bacteria rather than only halting them. Broadly, the MIC is the lowest concentration that inhibits growth of the organism.

Regarding `CC(=O)c1c([O-])c(C)c([O-])c2c1OC1=CC(=O)C(C(C)=O)C(=O)C12C.[Cu+2]` (stereo not shown) [Copper usnate, copper (II) usnate], the MBC turned out to be 62.5 µg/mL in the test on C. striatum NCTC 764 and 31.25 µg/mL in the test on S. mutans ATCC 25175 [2]. The compound further came in with an MIC against S. mutans ATCC 25175 [1] of 1.95 µg/mL. Moreover, the “DDA zone diameter, +1% NaCl” value with P. acnes NCTC 737 (medium +1% NaCl) was found to be 42.9 ± 0.4 mm. For the same compound, the “DDA zone diameter, +1% triolein” value in the test on P. acnes NCTC 737 (medium +1% triolein) is 27.4 ± 1.5 mm.

Regarding `CC(=O)c1c(O)c(C)c(O)c2c1OC1=CC(=O)C(C(C)=O)C(=O)C12C` (stereo not shown) [Usnic acid, 2,6-diacetyl-7,9-dihydroxy-8,9b-dimethyl-1,3(2H,9bh)-dibenzofurandione], the MBC came out at 62.5 µg/mL (≈ 182 µM) with C. striatum NCTC 764 (Corynebacterium striatum, NCTC764, read-out: MBC) and 125 µg/mL (≈ 363 µM) in the test on S. mutans ATCC 25175 [2] (Streptococcus mutans, ATCC25175, read-out: MBC). Also, in the test with S. mutans ATCC 25175 [1] (Streptococcus mutans, ATCC25175, read-out: MIC), the MIC is 3.9 µg/mL (≈ 11.3 µM). For the same compound, the zone of inhibition at 200 µg/disc was 29.8 mm in the test with P. acnes NCTC 737 (medium +1% NaCl, read-out: DDA zone diameter, +1% NaCl) and 10.9 mm with P. acnes NCTC 737 (medium +1% triolein, read-out: DDA zone diameter, +1% triolein).
